This note sets out measurements from patent US12606541B2, “PPARg modulators and methods of use” (Eisai R&D Management Co., Ltd., priority 2020, dated 2026).

Each structure is given as a SMILES string.

The target in this assay is T1, His6-TEV-PPARγ-(234-505) (Homo sapiens, UniProt P37231).
T1 construct: The His6-TEV-PPARγ-(234-505) protein for assay was expressed and purified; TEV cleavage site (N); made in house
T1 sequence (P37231 234-505): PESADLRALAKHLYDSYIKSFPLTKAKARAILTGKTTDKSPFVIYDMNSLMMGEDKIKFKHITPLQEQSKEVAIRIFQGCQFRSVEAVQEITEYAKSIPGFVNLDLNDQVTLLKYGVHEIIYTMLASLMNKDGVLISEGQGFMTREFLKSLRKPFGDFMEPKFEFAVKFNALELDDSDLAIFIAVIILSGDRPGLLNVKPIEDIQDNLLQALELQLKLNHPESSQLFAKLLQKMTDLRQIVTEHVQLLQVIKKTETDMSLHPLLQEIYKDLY
As to the kind of experiment: TR-FRET Assay to Measure Co-R Peptide Recruitment to PPARγ. Format: biochemical. As to conditions: Co-R peptide recruitment to PPARγ; read-out: TR-FRET AC50. An outline of the steps: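 His-tagged PPARγ (or controls) was preincubated with compound for 20 minutes at room temperature, then 5 nM anti-His terbium antibody and 200 nM FITC-labeled SMRT-ID2 corepressor peptide (final) were added for a further hour. TR-FRET signal was normalized to percent response using 500 nM T0070907 and DMSO controls.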
(In TR-FRET formats the signal depends on donor and acceptor labels being close together.)
For the molecule `CN(C)CCNC(=O)C1CCN(C(=O)c2cc(-c3ccncc3)[nH]n2)CC1` [N-[2-(dimethylamino)ethyl]-1-[5-(pyridin-4-yl)-1H-pyrazole-3-carbonyl]piperidine-4-carboxamide], the AC50 is above 1000 nM.

As for `COc1cc(-c2cc(C(=O)N3CCC(C(=O)NCc4cn5ccnc5cn4)CC3)n[nH]2)c(Cl)cn1` [1-[5-(5-chloro-2-methoxypyridin-4-yl)-1H-pyrazole-3-carbonyl]-N-({imidazo[1,2-a]pyrazin-6-yl}methyl)piperidine-4-carboxamide], the AC50 is above 1000 nM.

`COc1ccc(CNC(=O)C2CCN(C(=O)c3cc(-c4ccncc4)[nH]n3)CC2)cc1` [N-[(4-methoxyphenyl)methyl]-1-[5-(pyridin-4-yl)-1H-pyrazole-3-carbonyl]piperidine-4-carboxamide]: the concentration at half-maximal activity (AC50) was above 1000 nM.

For the molecule `COc1cc(-c2cc(C(=O)N3CCC(C(=O)NC4CNC(=O)C4)CC3)n[nH]2)c(Cl)cn1` (stereo not shown) [1-[5-(5-chloro-2-methoxypyridin-4-yl)-1H-pyrazole-3-carbonyl]-N-(5-oxopyrrolidin-3-yl)piperidine-4-carboxamide], the AC50 is above 1000 nM.

Take `COc1cc(-c2cc(C(=O)N3CCC(C(=O)NC(C)(C)c4cccc(Cl)c4)CC3)n[nH]2)c(Cl)cn1` [1-[5-(5-chloro-2-methoxypyridin-4-yl)-1H-pyrazole-3-carbonyl]-N-[2-(3-chlorophenyl)propan-2-yl]piperidine-4-carboxamide]: the AC50 is above 1000 nM.

Take `COc1cc(-c2cc(C(=O)N3CCC(C(=O)NCc4cc(C#N)ccn4)CC3)n[nH]2)c(Cl)cn1` [1-[5-(5-chloro-2-methoxypyridin-4-yl)-1H-pyrazole-3-carbonyl]-N-[(4-cyanopyridin-2-yl)methyl]piperidine-4-carboxamide]: the AC50 was above 1000 nM.

On to `COc1cc(-c2cc(C(=O)N3CCC(C(=O)NCc4ccccc4C(F)(F)F)CC3)n[nH]2)c(Cl)cn1` [1-[5-(5-chloro-2-methoxypyridin-4-yl)-1H-pyrazole-3-carbonyl]-N-{[2-(trifluoromethyl)phenyl]methyl}piperidine-4-carboxamide], for which the half-maximal activity concentration (AC50) is above 1000 nM.

Turning to `COc1cc(-c2cc(C(=O)N3CCC(C(=O)NC45CCC(O)(CC4)CC5)CC3)n[nH]2)c(Cl)cn1` [1-[5-(5-chloro-2-methoxypyridin-4-yl)-1H-pyrazole-3-carbonyl]-N-{4-hydroxybicyclo[2.2.2]octan-1-yl}piperidine-4-carboxamide], the AC50 is above 1000 nM.

On to `COc1cc(-c2cc(C(=O)N3CCC(C(=O)NCC4(C)COC4)CC3)n[nH]2)c(Cl)cn1` [1-[5-(5-chloro-2-methoxypyridin-4-yl)-1H-pyrazole-3-carbonyl]-N-[(3-methyloxetan-3-yl)methyl]piperidine-4-carboxamide], for which the AC50 is above 1000 nM.

On to `O=C(Nc1ccc(Cl)cc1)C1CCCN(C(=O)c2cc(-c3ccncc3)[nH]n2)C1` (stereo not shown) [N-(4-chlorophenyl)-1-[5-(pyridin-4-yl)-1H-pyrazole-3-carbonyl]piperidine-3-carboxamide], for which the AC50 was above 1000 nM.

As to `COc1nc(C)cc(C)c1CNC(=O)C1CCN(C(=O)c2cc(-c3ccncc3)[nH]n2)CC1` [N-[(2-methoxy-4,6-dimethylpyridin-3-yl)methyl]-1-[5-(pyridin-4-yl)-1H-pyrazole-3-carbonyl]piperidine-4-carboxamide], the AC50 was above 1000 nM.

On to `COc1cc(-c2cc(C(=O)N3CCC(C(=O)NCC4(C#N)CC4)CC3)n[nH]2)c(Cl)cn1` [1-[5-(5-chloro-2-methoxypyridin-4-yl)-1H-pyrazole-3-carbonyl]-N-[(1-cyanocyclopropyl)methyl]piperidine-4-carboxamide], for which the AC50 was above 1000 nM.

`O=C(NCc1ccccc1)C1CCN(C(=O)c2cc(-c3ccncc3)[nH]n2)CC1` [N-benzyl-1-[5-(pyridin-4-yl)-1H-pyrazole-3-carbonyl]piperidine-4-carboxamide]: the AC50 is above 1000 nM.

As usually defined, the AC50 is the concentration giving half of the maximal activity seen.
